Experiments:
Pyrenophora teres = Pyrenophora teres / barley / leaf disc preventative (net blotch); type: in vivo; settings: 200 ppm, barley leaf segments cv. Hasso, 5-7 days after application
Experimental: Barley leaf segments cv. Hasso are placed on agar in a multiwell plate (24-well format) and sprayed with the formulated test compound diluted in water. The leaf segments are inoculated with a spore suspension of the fungus 2 days after application. The inoculated leaf segments are incubated at 20° C. and 65% rh under a light regime of 12 h light/12 h darkness in a climate cabinet and the activity of a compound is assessed as disease control compared to untreated when an appropriate level of disease damage appears in untreated check leaf segments (5-7 days after application).

SMILES	melting point [°C]	control of Pyrenophora teres (Pyrenophora teres)
CC1(C)N=C(n2cnc3c4c(ccc32)CCC4)c2cccc(F)c2C1(C)C [Compound E-51]	177 to 178	–
CC1(C)N=C(n2cnc3c(F)c(F)ccc32)c2cccc(F)c2C1(C)C [Compound E-50]	112 to 114	–
Cc1ccc2c(ncn2C2=NC(C)(C)C(=O)c3cc(Cl)ccc32)c1C [Compound E-36]	196 to 199	–
CC(C)c1cccc2c1ncn2C1=NC(C)(C)C(C)(C)c2c(F)cccc21 [Compound E-12]	113 to 114	–
Cc1cccc2c1ncn2C1=NC(C)(C)C(C)(C)c2c1ccc(F)c2F [Compound E-46]	122 to 125	–
Cc1c(Br)ccc2c1ncn2C1=NC(C)(C)C(C)(C)c2c(F)cccc21 [Compound E-41]	122 to 124	–
Cc1ccc2c(ncn2C2=NC(C)(C)Cc3cc(F)ccc32)c1C [Compound E-57]	143 to 145	–
COC(=O)c1cccc2c1ncn2C1=NC(C)(C)C(C)(C)c2c(F)cccc21 [Compound E-24]	178 to 179	–
Cc1cccc2c1ncn2C1=NC(C)(C)C(C)(C)c2ccccc21 [Compound E-16]	–	at least 80%
Cc1cccc2c1ncn2C1=NC(C)(C)Cc2c(Br)cccc21 [Compound E-38]	52 to 54	–
CC1(C)N=C(n2cnc3cc(Cl)c(Cl)cc32)c2cccc(F)c2C1(C)C [Compound E-39]	126 to 127	–
Cc1cccc2c1ncn2C1=NC(C)(C)C(=O)c2ccccc21 [Compound E-10]	123 to 125	–
Cc1cccc2c1ncn2C1=NC(C)(C)C(C)(C)c2c(F)cccc21 [Compound E-1]	45 to 46	–
Cc1cccc2c1ncn2C1=NC2(CCC2)Cc2ccccc21 [Compound E-43]	132 to 133	–
CCc1cccc2c1ncn2C1=NC(C)(C)C(C)(C)c2c(F)cccc21 [Compound E-14]	87 to 88	–
CC1(C)N=C(n2cnc3c(Cl)cccc32)c2cccc(F)c2C1(C)C [Compound E-17]	50 to 51	–
CC1(C)N=C(n2cnc3c(Cl)cccc32)c2ccc(Cl)cc2C1(F)F [Compound E-37]	197 to 200	–
Cc1c(Cl)ccc2c1ncn2C1=NC(C)(C)C(C)(C)c2c(F)cccc21 [Compound E-42]	102 to 103	–
Cc1cccc2c1ncn2C1=NC(C)(C)C(C)(C)c2c1ccc(Cl)c2F [Compound E-45]	147 to 151	–
Cc1cccc2c1C(=O)C(C)(C)N=C2n1cnc2c(C)c(C)ccc21 [Compound E-27]	145 to 149	–
Cc1c(F)ccc2c1ncn2C1=NC(C)(C)C(=O)c2cc(Cl)ccc21 [Compound E-35]	133 to 136	–
Cc1c(F)ccc2c1ncn2C1=NC(C)(C)C(F)(F)c2ccccc21 [Compound E-32]	118 to 121	–
Cc1ccc2c(ncn2C2=NC3(CC3)C3(CC3)c3ccccc32)c1C [Compound E-58]	141 to 143	–
Cc1cccc2c1C(=O)C(C)(C)N=C2n1cnc2c(C)cccc21 [Compound E-26]	96 to 101	–
C=Cc1cccc2c1ncn2C1=NC(C)(C)C(C)(C)c2c(F)cccc21 [Compound E-13]	70 to 71	–
Cc1ccc2c(ncn2C2=NC(C)(C)C(=O)c3ccccc32)c1C [Compound E-25]	159 to 161	–
Cc1cccc2c1ncn2C1=NC(C)(C)C(=O)c2cc(Cl)ccc21 [Compound E-34]	129 to 133	–
Cc1cccc2c1ncn2C1=NC(C)(C)C(F)(F)c2ccccc21	142 to 149	–
Cc1cccc2c1ncn2C1=NC(C)(C)C(C)(C)c2c(F)cccc21 [X.011]	118 to 120	–
CC1(C)N=C(n2cnc3c(Br)cccc32)c2cccc(F)c2C1(C)C [Compound E-4]	48 to 49	–

Reference: patent US10966425B2, “Fungicidal compositions” (SYNGENTA PARTICIPATIONS AG, priority 2016, dated 2021)
